This test deals with T1, human TLR7 (Homo sapiens, UniProt Q9NYK1).
T1 construct: host or cells: HEK293 (HEK-Blue hTLR7)
T1 sequence (Q9NYK1 27-1049): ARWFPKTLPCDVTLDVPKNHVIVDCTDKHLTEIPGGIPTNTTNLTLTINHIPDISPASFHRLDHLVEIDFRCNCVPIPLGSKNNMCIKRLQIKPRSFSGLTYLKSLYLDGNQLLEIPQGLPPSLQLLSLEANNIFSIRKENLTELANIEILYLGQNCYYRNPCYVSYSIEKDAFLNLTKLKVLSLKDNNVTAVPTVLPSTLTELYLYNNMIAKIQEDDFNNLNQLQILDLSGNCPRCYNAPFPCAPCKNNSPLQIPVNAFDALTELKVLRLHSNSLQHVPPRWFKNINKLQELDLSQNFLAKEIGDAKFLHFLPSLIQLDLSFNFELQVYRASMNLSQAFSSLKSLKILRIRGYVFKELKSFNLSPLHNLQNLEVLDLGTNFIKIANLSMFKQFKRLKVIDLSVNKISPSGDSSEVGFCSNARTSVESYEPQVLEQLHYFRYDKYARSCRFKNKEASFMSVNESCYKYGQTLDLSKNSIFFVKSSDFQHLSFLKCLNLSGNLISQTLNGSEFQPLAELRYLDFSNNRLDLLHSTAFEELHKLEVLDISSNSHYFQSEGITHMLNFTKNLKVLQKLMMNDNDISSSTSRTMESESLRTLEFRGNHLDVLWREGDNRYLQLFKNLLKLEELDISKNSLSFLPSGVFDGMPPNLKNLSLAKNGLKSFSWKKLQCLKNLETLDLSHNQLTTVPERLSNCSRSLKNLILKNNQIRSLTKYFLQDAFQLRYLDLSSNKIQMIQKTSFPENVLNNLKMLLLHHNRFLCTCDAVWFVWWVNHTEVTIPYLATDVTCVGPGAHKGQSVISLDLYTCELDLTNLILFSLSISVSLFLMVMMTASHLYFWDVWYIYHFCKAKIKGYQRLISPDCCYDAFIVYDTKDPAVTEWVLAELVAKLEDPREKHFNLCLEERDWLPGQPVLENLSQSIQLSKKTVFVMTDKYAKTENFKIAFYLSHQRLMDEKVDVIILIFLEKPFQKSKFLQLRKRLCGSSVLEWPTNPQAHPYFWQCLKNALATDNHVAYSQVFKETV
Briefly: HEK293-Blue-hTLR-7 cells assay. Format: cell-based. The settings on record: HEK293-Blue-hTLR7 cells, R848 stimulation, 20 hrs; read-out: HEK/hTLR7 IC50. The text has this: A stable HEK293-Blue-hTLR-7 cell line was purchased from InvivoGen (Cat. #: hkb-htlr7, San Diego, California, USA). These cells were originally designed for studying the stimulation of human TLR7 by monitoring the activation of NF-κB. A SEAP (secreted embryonic alkaline phosphatase) reporter gene was placed under the control of the IFN-β minimal promoter fused to five NF-κB and AP-1-binding sites. The SEAP was induced by activating NF-κB and AP-1 via stimulating HEK-Blue hTLR7 cells with TLR7 ligands. Therefore the reporter expression was declined by TLR7 antagonist under the stimulation of a ligand, such as R848 (Resiquimod), for incubation of 20 hrs. The cell culture supernatant SEAP reporter activity was determined using QUANTI-Blue™ kit (Cat. #: rep-qbl, Invivogen, San Diego, Ca, USA) at a wavelength of 640 nm, a detection medium that turns purple or blue in the presence of alkaline phosphatase.
HEK293-Blue-hTLR7 cells were incubated at a density of 250,000-450,000 cells/mL in a volume of 170 μL in a 96-well plate in Dulbecco's Modified Eagle's medium (DMEM) containing 4.5 g/L glucose, 50 U/mL penicillin, […] streptomycin, […] Normocin, […] L-glutamine, 10% […] heat-inactivated fetal bovine serum with addition of 20 μL test compound in a serial dilution in the presence of final DMSO at 1% and 10 μL of 20 μM R848 in above DMEM, perform incubation under 37° C. in a CO2 incubator for 20 hrs. Then 20 μL of the supernatant from each well was incubated with 180 μL Quanti-blue substrate solution at 37° C. for 2 hrs and the absorbance was read at […] using a spectrophotometer. The signaling pathway that TLR7 activation leads to downstream NF-κB activation has been widely accepted, and therefore similar reporter assay was modified for evaluating TLR7 antagonist.

`Cc1cc(N2CC[C@H](c3ccc(N4CCOC[C@@H](N)C4)cn3)[C@@H](C)C2)c2cnn(C)c2n1` [Example 40, (6S)-4-[6-[(3R,4S)-1-(1,6-dimethylpyrazolo[3,4-b]pyridin-4-yl)-3-methyl-4-piperidyl]-3-pyridyl]-1,4-oxazepan-6-amine]: the IC50 was 9 nM. With `Cc1cc(N2CC[C@H](c3ccc(N4CC[C@@H](N)[C@H](F)C4)cn3)[C@@H](C)C2)c2cnn(C)c2n1` [Example 41, (3R,4R)-1-[6-[(3R,4S)-1-(1,6-dimethylpyrazolo[3,4-b]pyridin-4-yl)-3-methyl-4-piperidyl]-3-pyridyl]-3-fluoro-piperidin-4-amine], the IC50 worked out at 6 nM.

Consider `Cc1cc(N2CC[C@H](c3ccc(N4CC(C)(N)C4)cn3)[C@@H](C)C2)c2cnn(C)c2n1` [Example 43, 1-[6-[(3R,4S)-1-(1,6-dimethylpyrazolo[3,4-b]pyridin-4-yl)-3-methyl-4-piperidyl]-3-pyridyl]-3-methyl-azetidin-3-amine], for which the IC50 was 16 nM.

(Values after patent US20240360126A1, “PYRAZOLO[3,4-B]PYRIDINE COMPOUNDS FOR THE TREATMENT OF AUTOIMMUNE DISEASE” (Hoffmann-La Roche Inc., priority 2021, published 2024).)
